Measured values: US4304782A, “Psychotropic deuterated derivatives of phenylhydantoin and pharmaceutical compositions comprising such derivatives” (Region Wallonne, priority 1979, dated 1981)
Entries after “also recorded” stand apart in the source; their conditions may differ.

Experiments:
[1] = system: convulsions caused by pentylene tetrazole; assay: Protection against convulsions caused by pentylene tetrazole (PTZ) in adult female Wistar rats after oral administration; assay type: in vivo, rat (Wistar; set-up: key to Chi2 difference between the doses (100 and 200 mgr/kg) / Chi2 difference between the times: NS: not significant; settings: for Anticonvulsive activity compared with DPH: in comparison with diphenylhydantoin; for Chi2 difference between the doses (100 and 200 mgr/kg): 100 vs 200 mgr/kg; for Chi2 difference between the times: 1 hour vs 2 hours + 4 hours; for Chi2 difference between the times / Chi2 difference between DPH and deuterated DPH: * P < 0.05, ** P < 0.01; for Protection of rats against the convulsive effect of PTZ (number of protected animals / total number of animals): PTZ 100 mgr/kg intraperitoneally
Procedure: The active substances according to the invention were tested in order to examine their activity and their effects in comparison with known diphenylhydantoin (DPH). In these tests as follows, 5-(paradeuterophenyl)-5-phenylhydantoin will be designated by DPH-d1 and 5-phenyl-d5 -5-phenylhydantoin by DPH-d5.
To examine the anticonvulsive activity of these substances, they were subjected to testing as to protection against convulsions caused by pentylene tetrazole on adult female rat (Wistar strain: 200-220 gr). One, two or four hours after oral administration of hydantoins (100 and 200 mgr/kg: solution in dimethyl sulfoxide/propylene glycol), animals have received a dose of 100 mgr/kg of pentylene tetrazole (PTZ) intraperitonally, then they were maintained under observation for 1 hour. The absence of appearance of convulsions was considered as a positive response. The results are expressed in the following table I as the ratio between the number of protected animals and the total number of animals.
The research of significant differences has been made on the following aspects: between DPH and deuterated DPH at 1 hour at doses of 100 and 200 mgr/kg, between DPH and deuterated DPH at any time and at a dose of 100 mgr/kg, between doses of 100 and 200 mgr/kg and between the times.

[2] = Accumulation in the cerebral tissue (general statement); assay type: in vivo; settings: in comparison with diphenylhydantoin
Text: (§1) The contents of the various tissues in DPH, DPH-d1 and DPH-d5 have been determined at two times after oral administration (male mice, female rats, titration by gaseous chromatography).
(§2) The whole results are mentioned in the following table III. The indicated values represent the ratio of active substance concentrations in the brain and blood. After oral administration, these values as well in rat as in mouse show a trend, which is marked to very marked, to be higher for deuterated DPH than for DPH itself.

[3] = Repartition in tissues (brain/blood ratio) after oral administration, rats, titration by gaseous chromatography; assay type: in vivo; settings: female rat ± 200 gr, oral 100 mg/kg; for Kp at 1 h: after 1 hour; for Kp at 2 h: after 2 hours
Text: as §1, §2

[4] = Repartition in tissues (brain/blood ratio) after oral administration, mice, titration by gaseous chromatography; assay type: in vivo; settings: mouse, 100 mg/kg, male mice 20-25gr, oral 100 mgr/kg; for Kp at 2 h: after 2 hours; for Kp at 24 h: after 24 hours
Text: as §1, §2

Compound | Anticonvulsive activity compared with DPH [1] | Accumulation in the cerebral tissue [2] | Chi2 difference between the doses (100 and 200 mgr/kg) [1] | Chi2 difference between the times [1] | Protection of rats against the convulsive effect of PTZ (number of protected animals / total number of animals) ([1]; oral 100 mgr/kg, 1 hour) | Protection of rats against the convulsive effect of PTZ (number of protected animals / total number of animals) ([1]; oral 100 mgr/kg, 2 hours) | Protection of rats against the convulsive effect of PTZ (number of protected animals / total number of animals) ([1]; oral 100 mgr/kg, 4 hours) | Protection of rats against the convulsive effect of PTZ (number of protected animals / total number of animals) ([1]; oral 200 mgr/kg, 1 hour) | Kp at 1 h [3] | Kp at 2 h [3] | Kp at 2 h [4] | Kp at 24 h [4] | Chi2 difference between DPH and deuterated DPH ([1]; at 1 hour, 100 mgr/kg) | Chi2 difference between DPH and deuterated DPH ([1]; at 1 hour, 200 mgr/kg) | Chi2 difference between DPH and deuterated DPH ([1]; at any time, 100 mgr/kg) | Anticonvulsive activity compared with DPH ([1]; listed as (R,S)-5-phenyl-d5 -5-phenylhydantoin)
[2H]c1c([2H])c([2H])c(C2(c3c([2H])c([2H])c([2H])c([2H])c3[2H])NC(=O)NC2=O)c([2H])c1[2H] [5,5-di-(phenyl-d5)-hydantoin] | higher anticonvulsive activity than diphenylhydantoin | accumulation in the cerebral tissue more favorably |  |  |  |  |  |  |  |  |  |  |  |  |  | 
O=C1NC(=O)C(c2ccccc2)(c2ccccc2)N1 [DPH, 5,5-diphenylhydantoin, reference compound] |  |  | NS | NS | 4/25 | 2/10 | 0/10 | 5/35 | 0.9 ± 0.13 | 5.91 ± 0.93 | 1.45 ± 0.1 | 2.09 ± 0.22 |  |  |  | 
[2H]c1ccc(C2(c3ccccc3)NC(=O)NC2=O)cc1 (stereo not shown) [DPH-d1, 5-(paradeuterophenyl)-5-phenylhydantoin] | better protects the animals against the convulsive effect of PTZ than DPH; also recorded: higher anticonvulsive activity |  | NS | 3.93 | 9/14 | 4/10 | 2/10 | 11/30 | 2.1 ± 0.41 | 15.5 ± 3.7 |  |  | 9.42 | 4.36 | 9.40 | 
[2H]c1c([2H])c([2H])c(C2(c3ccccc3)NC(=O)NC2=O)c([2H])c1[2H] (stereo not shown) [DPH-d5, 5-phenyl-d5-5-phenylhydantoin] | A difference in the same direction, close to the significance limit; also recorded: higher anticonvulsive activity | accumulation in the cerebral tissue more favorably | NS | 3.58 | 7/20 | 2/10 | 0/10 | 11/35 | 2.15 ± 0.37 | 4.49 ± 1.33 | 2.35 ± 0.26 | 2.97 ± 0.3 | 2.17 | 2.92 | 1.22 | higher anticonvulsive activity than diphenylhydantoin
